Data as given in patent US10399932B2, “Inhibitors of indoleamine-2,3-dioxygenase for the treatment of cancer” (BRISTOL-MYERS SQUIBB COMPANY, priority 2015, dated 2019).

Target: human IDO1 (Homo sapiens, UniProt P14902)
Assay: Assessment of human IDO-1 inhibitory activity in HEK cells (human IDO1/HEK293 cells, Ehrlich reagent, absorbance at 490 nm)
Assay type: cell-based
Set-up: expressed in transfected cells
Details: In Vitro Potency in the HEK Human IDO-1 Cellular Assay
In short: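 Stable human IDO1-expressing HEK293 cells treated with compound for 20 h at 37 °C in phenol red-free RPMI/10% FBS. Stopped with 0.2% TCA (final) and heated 30 min at 50 °C; supernatant mixed with Ehrlich reagent, absorbance read at 490 nm. IC50 normalised to DMSO (0%) and 500 nM reference standard (100% inhibition).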

human IDO1, sequence (P14902 whole entry): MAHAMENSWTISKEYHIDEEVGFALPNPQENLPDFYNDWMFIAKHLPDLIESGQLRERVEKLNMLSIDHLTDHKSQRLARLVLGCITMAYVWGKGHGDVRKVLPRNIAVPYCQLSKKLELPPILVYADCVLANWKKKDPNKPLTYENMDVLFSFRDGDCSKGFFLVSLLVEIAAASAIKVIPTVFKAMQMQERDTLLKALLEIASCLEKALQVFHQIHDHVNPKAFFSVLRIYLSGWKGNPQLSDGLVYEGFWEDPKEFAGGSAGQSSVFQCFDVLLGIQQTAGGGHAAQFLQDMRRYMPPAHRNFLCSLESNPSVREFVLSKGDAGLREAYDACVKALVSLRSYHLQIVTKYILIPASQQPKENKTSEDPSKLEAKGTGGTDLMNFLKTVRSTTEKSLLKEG

In the case of `COCC(CC(=O)O)c1cc(F)c(N(CC(C)C)C2CCCCC2)c(NC(=O)Cc2ccc(C)cc2)c1` (single isomer, unassigned) [Example 1174, 3-(4-(cyclohexyl(isobutyl)amino)-3-fluoro-5-(2-(p-tolyl)acetamido)phenyl)-4-methoxybutanoic acid], the IC50 is reported as < 50 nM.
For `COCC(CC(=O)O)c1cc(F)c(N(CC(C)C)C2CCCCC2)c(NC(=O)Cc2ccc(Cl)cc2F)c1` (single isomer, unassigned) [Example 1175, 3-(3-(2-(4-chloro-2-fluorophenyl)acetamido)-4-(cyclohexyl(isobutyl)amino)-5-fluorophenyl)-4-methoxybutanoic acid], the IC50 was < 50 nM.
In the case of `COCC(CC(=O)O)c1cc(F)c(N(CC(C)C)CC(C)C)c(NC(=O)Cc2ccc(Cl)cc2F)c1` (single isomer, unassigned) [Example 1187, 3-(3-(2-(4-Chloro-2-fluorophenyl)acetamido)-4-(diisobutylamino)-5-fluorophenyl)-4-methoxybutanoic acid], the IC50 is reported as < 5 nM.
For `COCC(CC(=O)O)c1cc(F)c(N(CC(C)C)CC(C)C)c(NC(=O)Nc2cc(C)on2)c1` (single isomer, unassigned) [Example 1188, 3-(4-(Diisobutylamino)-3-fluoro-5-(3-(5-methylisoxazol-3-yl)ureido)phenyl)-4-methoxybutanoic acid], the IC50 was < 50 nM.
With `COCC(CC(=O)O)c1cc(F)c(N(CC(C)C)CC(C)C)c(NC(=O)Nc2ccc(OC)cc2F)c1` (single isomer, unassigned) [Example 1189, 3-(4-(Diisobutylamino)-3-fluoro-5-(3-(2-fluoro-4-methoxyphenyl)ureido)phenyl)-4-methoxybutanoic acid] the IC50 was < 5 nM.
With `CCOc1ccc(CC(=O)Nc2cc(C(COC)CC(=O)O)cc(F)c2N(CC(C)C)CC(C)C)cc1` (single isomer, unassigned) [Example 1193, 3-(4-(Diisobutylamino)-3-(2-(4-ethoxyphenyl)acetamido)-5-fluorophenyl)-4-methoxybutanoic acid] the IC50 was < 50 nM.
For `COCC(CC(=O)O)c1cc(F)c(N(CC(C)C)CC(C)C)c(NC(=O)Nc2ccc(Cl)cc2F)c1` (single isomer, unassigned) [Example 1195, 3-(3-(3-(4-Chloro-2-fluorophenyl)ureido)-4-(diisobutylamino)-5-fluorophenyl)-4-methoxybutanoic acid], the IC50 was < 5 nM.
With `CC(C)CN(c1ccc(C(CC(=O)O)C2CC2)cc1NC(=O)Nc1ccc(Cl)cc1F)C1CCOCC1` (single isomer, unassigned) [Example 1199 Enantiomer 2, 3-(3-(3-(4-Chloro-2-fluorophenyl)ureido)-4-(isobutyl(tetrahydro-2H-pyran-4-yl)amino)phenyl)-3-cyclopropylpropanoic acid] the IC50 was < 5 nM.
`Cc1cc(NC(=O)Nc2cc(C(CC(=O)O)C3CC3)ccc2N(CC(C)C)C2CCOCC2)no1` (single isomer, unassigned) [Example 1201 Enantiomer 2, 3-Cyclopropyl-3-(4-(isobutyl(tetrahydro-2H-pyran-4-yl)amino)-3-(3-(5-methylisoxazol-3-yl)ureido)phenyl)propanoic acid] was tested, and the IC50 was < 50 nM.
In the case of `CCOc1ccc(NC(=O)Nc2cc(C(CC(=O)O)C3CC3)ccc2N(CC(C)C)C2CCOCC2)cc1` (single isomer, unassigned) [Example 1205 Enantiomer 2, 3-Cyclopropyl-3-(3-(3-(4-ethoxyphenyl)ureido)-4-(isobutyl(tetrahydro-2H-pyran-4-yl)amino)phenyl)propanoic acid], the IC50 is reported as < 50 nM.
`CC(C)CN(c1ccc(C(CC(=O)O)C2CC2)cc1NC(=O)Nc1cncnc1)C1CCOCC1` (single isomer, unassigned) [Example 1207 Enantiomer 2, 3-Cyclopropyl-3-(4-(isobutyl(tetrahydro-2H-pyran-4-yl)amino)-3-(3-(pyrimidin-5-yl)ureido)phenyl)propanoic acid] was tested, and the IC50 was > 50 nM.
`COCC(CC(=O)O)c1ccc(N(CC(C)C)C2CCOCC2)c(NC(=O)Nc2ccc(OC(F)(F)F)cc2)c1` (single isomer, unassigned) [Example 1218, 3-(4-(Isobutyl(tetrahydro-2H-pyran-4-yl)amino)-3-(3-(4-(trifluoromethoxy)phenyl)ureido)phenyl)-4-methoxybutanoic acid] was tested, and the IC50 was > 50 nM.
In the case of `CCOc1ccc(NC(=O)Nc2cc(C(COC)CC(=O)O)ccc2N(CC(C)C)C2CCOCC2)cc1` (single isomer, unassigned) [Example 1219, 3-(3-(3-(4-Ethoxyphenyl)ureido)-4-(isobutyl(tetrahydro-2H-pyran-4-yl)amino)phenyl)-4-methoxybutanoic acid], the IC50 is reported as > 50 nM.
For `COCC(CC(=O)O)c1ccc(N(CC(C)C)C2CCOCC2)c(NC(=O)Nc2cc(C)on2)c1` (single isomer, unassigned) [Example 1220, 3-(4-(Isobutyl(tetrahydro-2H-pyran-4-yl)amino)-3-(3-(5-methylisoxazol-3-yl)ureido)phenyl)-4-methoxybutanoic acid], the IC50 was > 50 nM.
With `COCC(CC(=O)O)c1ccc(N(CC(C)C)C2CCCCC2)c(NC(=O)Nc2ccc(OC)cc2F)c1` (single isomer, unassigned) [Example 1239, 3-(4-(Cyclohexyl(isobutyl)amino)-3-(3-(2-fluoro-4-methoxyphenyl)ureido)phenyl)-4-methoxybutanoic acid] the IC50 was < 5 nM.
For `COCC(CC(=O)O)c1ccc(N(CC(C)C)C2CCCCC2)c(NC(=O)Cc2ccc(C)cc2)c1` (single isomer, unassigned) [Example 1240, 3-(4-(Cyclohexyl(isobutyl)amino)-3-(2-(p-tolyl)acetamido)phenyl)-4-methoxybutanoic acid], the IC50 was < 50 nM.
In the case of `CCOc1ccc(CC(=O)Nc2cc(C(COC)CC(=O)O)ccc2N(CC(C)C)C2CCCCC2)cc1` (single isomer, unassigned) [Example 1242, 3-(4-(Cyclohexyl(isobutyl)amino)-3-(2-(4-ethoxyphenyl)acetamido)phenyl)-4-methoxybutanoic acid], the IC50 is reported as < 50 nM.
`COCC(CC(=O)O)c1ccc(N(CC(C)C)C2CCCCC2)c(NC(=O)Cc2ccc(Cl)cc2F)c1` (single isomer, unassigned) [Example 1246, 3-(3-(2-(4-Chloro-2-fluorophenyl)acetamido)-4-(cyclohexyl(isobutyl)amino)phenyl)-4-methoxybutanoic acid] was tested, and the IC50 was < 5 nM.
`Cc1ccc(CC(=O)Nc2cc(C(CC(=O)O)C3CC3)ccc2N(CC(C)C)C2CCCCC2)cc1` (single isomer, unassigned) [Example 1249, 3-(4-(Cyclohexyl(isobutyl)amino)-3-(2-(p-tolyl)acetamido)phenyl)-3-cyclopropylpropanoic acid] was tested, and the IC50 was < 5 nM.
`CCOc1ccc(CC(=O)Nc2cc(C(CC(=O)O)C3CC3)ccc2N(CC(C)C)C2CCCCC2)cc1` (single isomer, unassigned) [Example 1250, 3-(4-(Cyclohexyl(isobutyl)amino)-3-(2-(4-ethoxyphenyl)acetamido)phenyl)-3-cyclopropylpropanoic acid] was tested, and the IC50 was < 5 nM.
`Cc1cc(CC(=O)Nc2cc(C(CC(=O)O)C3CC3)ccc2N(CC(C)C)C2CCCCC2)no1` (single isomer, unassigned) [Example 1252, 3-(4-(Cyclohexyl(isobutyl)amino)-3-(2-(5-methylisoxazol-3-yl)acetamido)phenyl)-3-cyclopropylpropanoic acid] was tested, and the IC50 was < 50 nM.
